# Measurements as given in PMC6979384, “Characterization of the plant homeodomain (PHD) reader family for their histone tail interactions” (Epigenetics & Chromatin, 2020).
# Legend:
# Assay in all cases: Histone peptide microarray
# Format in all cases: binding, human
# AIRE (PP) = details: sheet "Array Heatmap", total n = 4; for Array Heatmap value (peptide array signal): AIRE (PP), each array performed twice
# In short: (§1)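 Using an optimized microarray protocol, purified GST-tagged PHD fingers were incubated at 0.5 μM on 293 histone peptides with single or multiple modifications, and array signal was recorded as the average of 4 replicates.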
# BAZ2B = details: sheet "Array Heatmap", total n = 4; for Array Heatmap value (peptide array signal): BAZ2B, each array performed twice
# In short: as §1
# BPTF (PB) = details: sheet "Array Heatmap", total n = 4; for Array Heatmap value (peptide array signal): BPTF (PB), each array performed twice
# In short: as §1
# CHD4 (PPCC) = details: sheet "Array Heatmap", total n = 4; for Array Heatmap value (peptide array signal): CHD4 (PPCC), each array performed twice
# In short: as §1
# CHD5 (PCC) = details: sheet "Array Heatmap", total n = 4; for Array Heatmap value (peptide array signal): CHD5 (PCC), each array performed twice
# In short: as §1
# CHD5 (PPCC) = details: sheet "Array Heatmap", total n = 4; for Array Heatmap value (peptide array signal): CHD5 (PPCC), each array performed twice
# In short: as §1
# DIDO1 = details: sheet "Array Heatmap", total n = 4; for Array Heatmap value (peptide array signal): DIDO1, each array performed twice
# In short: as §1
# DPF2 (PPC2W2) = details: sheet "Array Heatmap", total n = 4; for Array Heatmap value (peptide array signal): DPF2 (PPC2W2), each array performed twice
# In short: as §1
# ING1 = details: sheet "Array Heatmap", total n = 4; for Array Heatmap value (peptide array signal): ING1, each array performed twice
# In short: as §1
# ING2 = details: sheet "Array Heatmap", total n = 4; for Array Heatmap value (peptide array signal): ING2, each array performed twice
# In short: as §1
# ING3 = details: sheet "Array Heatmap", total n = 4; for Array Heatmap value (peptide array signal): ING3, each array performed twice
# In short: as §1
# ING4 = details: sheet "Array Heatmap", total n = 4; for Array Heatmap value (peptide array signal): ING4, each array performed twice
# In short: as §1
# ING5 = details: sheet "Array Heatmap", total n = 4; for Array Heatmap value (peptide array signal): ING5, each array performed twice
# In short: as §1
# KDM4C (TTP) = details: sheet "Array Heatmap", total n = 4; for Array Heatmap value (peptide array signal): KDM4C (TTP), each array performed twice
# In short: as §1
# KDM5A (1) = details: sheet "Array Heatmap", total n = 4; for Array Heatmap value (peptide array signal): KDM5A (1), each array performed twice
# In short: as §1
# KDM5A (3) = details: sheet "Array Heatmap", total n = 4; for Array Heatmap value (peptide array signal): KDM5A (3), each array performed twice
# In short: as §1
# KDM5B (1) = details: sheet "Array Heatmap", total n = 4; for Array Heatmap value (peptide array signal): KDM5B (1), each array performed twice
# In short: as §1
# KDM5B (3) = details: sheet "Array Heatmap", total n = 4; for Array Heatmap value (peptide array signal): KDM5B (3), each array performed twice
# In short: as §1
# KDM7A = details: sheet "Array Heatmap", total n = 4; for Array Heatmap value (peptide array signal): KDM7A, each array performed twice
# In short: as §1
# MLL5 = details: sheet "Array Heatmap", total n = 4; for Array Heatmap value (peptide array signal): MLL5, each array performed twice
# In short: as §1
# MORC3 (CW) = details: sheet "Array Heatmap", total n = 4; for Array Heatmap value (peptide array signal): MORC3 (CW), each array performed twice
# In short: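 Binding read as mean relative signal from 4 replicates; microarray held 293 synthetic histone peptides with single or combinatorial PTMs. Each GST-tagged PHD reader was applied at 0.5 μM using the optimized Petell protocol.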
# PHF13 = details: sheet "Array Heatmap", total n = 4; for Array Heatmap value (peptide array signal): PHF13, each array performed twice
# In short: as §1
# PHF21A = details: sheet "Array Heatmap", total n = 4; for Array Heatmap value (peptide array signal): PHF21A, each array performed twice
# In short: as §1
# PHF23 = details: sheet "Array Heatmap", total n = 4; for Array Heatmap value (peptide array signal): PHF23, each array performed twice
# In short: as §1
# PHF2 = details: sheet "Array Heatmap", total n = 4; for Array Heatmap value (peptide array signal): PHF2, each array performed twice
# In short: as §1
# PHF8 = details: sheet "Array Heatmap", total n = 4; for Array Heatmap value (peptide array signal): PHF8, each array performed twice
# In short: as §1
# PHRF1 (RP) = details: sheet "Array Heatmap", total n = 4; for Array Heatmap value (peptide array signal): PHRF1 (RP), each array performed twice
# In short: as §1
# RAG2 = details: sheet "Array Heatmap", total n = 4; for Array Heatmap value (peptide array signal): RAG2, each array performed twice
# In short: as §1
# SP140L = details: sheet "Array Heatmap", total n = 4; for Array Heatmap value (peptide array signal): SP140L, each array performed twice
# In short: as §1
# TAF3 = details: sheet "Array Heatmap", total n = 4; for Array Heatmap value (peptide array signal): TAF3, each array performed twice
# In short: as §1
# TRIM66 (PB) = details: sheet "Array Heatmap", total n = 4; for Array Heatmap value (peptide array signal): TRIM66 (PB), each array performed twice
# In short: as §1
# [1] = GST-tagged reader, histone peptide array
substance,measurement,setting,value
H3.3K18ac + K23ac + K27ac: H3.3 15-34,"Array Heatmap signal, AIRE (PP)",AIRE (PP); [1],0.3882
same,"Array Heatmap signal, BAZ2B",BAZ2B; [1],0.3976
same,"Array Heatmap signal, BPTF (PB)",BPTF (PB); [1],0.2983
same,"Array Heatmap signal, CHD4 (PPCC)",CHD4 (PPCC); [1],0.4939
same,"Array Heatmap signal, CHD5 (PCC)",CHD5 (PCC); [1],0.7415
same,"Array Heatmap signal, CHD5 (PPCC)",CHD5 (PPCC); [1],0.4663
same,"Array Heatmap signal, DIDO1",DIDO1; [1],0.6174
same,"Array Heatmap signal, DPF2 (PPC2W2)",DPF2 (PPC2W2); [1],0.5923
same,"Array Heatmap signal, ING1",ING1; [1],0.4856
same,"Array Heatmap signal, ING2",ING2; [1],0.5898
same,"Array Heatmap signal, ING3",ING3; [1],0.4284
same,"Array Heatmap signal, ING4",ING4; [1],0.3863
same,"Array Heatmap signal, ING5",ING5; [1],0.2999
same,"Array Heatmap signal, KDM4C (TTP)",KDM4C (TTP); [1],0.4047
same,"Array Heatmap signal, KDM5A (1)",KDM5A (1); [1],0.4013
same,"Array Heatmap signal, KDM5A (3)",KDM5A (3); [1],0.3827
same,"Array Heatmap signal, KDM5B (1)",KDM5B (1); [1],0.6049
same,"Array Heatmap signal, KDM5B (3)",KDM5B (3); [1],0.4033
same,"Array Heatmap signal, KDM7A",KDM7A; [1],0.2948
same,"Array Heatmap signal, MLL5",MLL5; [1],0.5276
same,"Array Heatmap signal, MORC3 (CW)",MORC3 (CW); [1],0.3178
same,"Array Heatmap signal, PHF13",PHF13; [1],0.5394
same,"Array Heatmap signal, PHF21A",PHF21A; [1],0.4029
same,"Array Heatmap signal, PHF23",PHF23; [1],0.5184
same,"Array Heatmap signal, PHF2",PHF2; [1],0.5078
same,"Array Heatmap signal, PHF8",PHF8; [1],0.3485
same,"Array Heatmap signal, PHRF1 (RP)",PHRF1 (RP); [1],0.3802
same,"Array Heatmap signal, RAG2",RAG2; [1],0.2141
same,"Array Heatmap signal, SP140L",SP140L; [1],0.3146
same,"Array Heatmap signal, TAF3",TAF3; [1],0.2149
same,"Array Heatmap signal, TRIM66 (PB)",TRIM66 (PB); [1],0.509
H3.3K27bhb (15-34): H3.3 15-34,Array Heatmap value (peptide array signal),AIRE (PP),0.4047
same,Array Heatmap value (peptide array signal),BAZ2B,0.4313
same,Array Heatmap value (peptide array signal),BPTF (PB),0.3432
same,Array Heatmap value (peptide array signal),CHD4 (PPCC),0.5447
same,Array Heatmap value (peptide array signal),CHD5 (PCC),0.7166
same,Array Heatmap value (peptide array signal),CHD5 (PPCC),0.5245
same,Array Heatmap value (peptide array signal),DIDO1,0.6388
same,Array Heatmap value (peptide array signal),DPF2 (PPC2W2),0.6281
same,Array Heatmap value (peptide array signal),ING1,0.5173
same,Array Heatmap value (peptide array signal),ING2,0.6144
same,Array Heatmap value (peptide array signal),ING3,0.4499
same,Array Heatmap value (peptide array signal),ING4,0.4357
same,Array Heatmap value (peptide array signal),ING5,0.34
same,Array Heatmap value (peptide array signal),KDM4C (TTP),0.4386
same,Array Heatmap value (peptide array signal),KDM5A (1),0.4361
same,Array Heatmap value (peptide array signal),KDM5A (3),0.404
same,Array Heatmap value (peptide array signal),KDM5B (1),0.6279
same,Array Heatmap value (peptide array signal),KDM5B (3),0.4143
same,Array Heatmap value (peptide array signal),KDM7A,0.312
same,Array Heatmap value (peptide array signal),MLL5,0.5648
same,Array Heatmap value (peptide array signal),MORC3 (CW),0.3496
same,Array Heatmap value (peptide array signal),PHF13,0.6011
same,Array Heatmap value (peptide array signal),PHF21A,0.4386
same,Array Heatmap value (peptide array signal),PHF23,0.5306
same,Array Heatmap value (peptide array signal),PHF2,0.5233
same,Array Heatmap value (peptide array signal),PHF8,0.363
same,Array Heatmap value (peptide array signal),PHRF1 (RP),0.4098
same,Array Heatmap value (peptide array signal),RAG2,0.2325
same,Array Heatmap value (peptide array signal),SP140L,0.3378
same,Array Heatmap value (peptide array signal),TAF3,0.2621
same,Array Heatmap value (peptide array signal),TRIM66 (PB),0.6188
H3.3K27hxo (15-34): H3.3 15-34,Array Heatmap value (peptide array signal),AIRE (PP),0.3038
same,Array Heatmap value (peptide array signal),BAZ2B,0.3359
same,Array Heatmap value (peptide array signal),BPTF (PB),0.2696
same,Array Heatmap value (peptide array signal),CHD4 (PPCC),0.4698
same,Array Heatmap value (peptide array signal),CHD5 (PCC),0.595
same,Array Heatmap value (peptide array signal),CHD5 (PPCC),0.3985
same,Array Heatmap value (peptide array signal),DIDO1,0.6054
same,Array Heatmap value (peptide array signal),DPF2 (PPC2W2),0.5523
same,Array Heatmap value (peptide array signal),ING1,0.4956
same,Array Heatmap value (peptide array signal),ING2,0.5803
same,Array Heatmap value (peptide array signal),ING3,0.3628
same,Array Heatmap value (peptide array signal),ING4,0.3406
same,Array Heatmap value (peptide array signal),ING5,0.2604
same,Array Heatmap value (peptide array signal),KDM4C (TTP),0.3245
same,Array Heatmap value (peptide array signal),KDM5A (1),0.3701
same,Array Heatmap value (peptide array signal),KDM5A (3),0.3948
same,Array Heatmap value (peptide array signal),KDM5B (1),0.5964
same,Array Heatmap value (peptide array signal),KDM5B (3),0.3693
same,Array Heatmap value (peptide array signal),KDM7A,0.2316
same,Array Heatmap value (peptide array signal),MLL5,0.4892
same,Array Heatmap value (peptide array signal),MORC3 (CW),0.2947
same,Array Heatmap value (peptide array signal),PHF13,0.4541
same,Array Heatmap value (peptide array signal),PHF21A,0.3552
same,Array Heatmap value (peptide array signal),PHF23,0.4877
same,Array Heatmap value (peptide array signal),PHF2,0.4925
same,Array Heatmap value (peptide array signal),PHF8,0.2775
same,Array Heatmap value (peptide array signal),PHRF1 (RP),0.3528
same,Array Heatmap value (peptide array signal),RAG2,0.1931
same,Array Heatmap value (peptide array signal),SP140L,0.2976
same,Array Heatmap value (peptide array signal),TAF3,0.2046
same,Array Heatmap value (peptide array signal),TRIM66 (PB),0.4904
